Like-named read-outs stand apart in the source and are kept apart here. Bounds are passed on as bounds.

This is an account of results in article PMC3109985 (Organic letters, 2011).

One data set deals with HIV-1 NL4-3. Description: Anti-HIV assay: HIV-1 NL4-3 replication in MT4 cells, p24 ELISA. Type of data set: cell-based. Background: In an ELISA, binding on a coated surface is turned into a signal by an enzyme label.
The nature of data set [1]: Cytotoxicity to MT4 cells, CellTiter-Glo Luminescent Cell Viability Assay. Type of data set: cell-based. Particulars: human. (In general: ATP-based viability assays read luminescence as a measure of living cells.)
Setting [2] is: Human immunodeficiency virus 1, NL43, MT4, 96 h, read-out: anti-HIV (NL4-3) EC90.
Setting [3] is: read-out: anti-HIV (NL4-3) EC90, concentration that inhibited HIV-1 replication by 90%, MT4 cells, 4-day post infection, p24 ELISA.

In general, EC90 refers to the concentration needed for an effect of 90%. One may read the IC50 as the concentration at which inhibition is half-maximal. A high value points to weaker potency in that assay. On to `C=C(C)[C@@]12C[C@@H](COC(=O)c3ccccc3)[C@@]34OC5(O[C@@H]1[C@@H]3[C@@H]1O[C@]1(CO)[C@@H](O)[C@@]1(O)[C@H]4[C@H]([C@H](C)[C@@H]1OC(=O)c1ccccc1)[C@H](C)CCCCCC[C@H]5O)O2` [Compound 1, gnidimacrin], for which the EC90 in the data set on HIV-1 NL4-3 (setting [2]) was 0.41 nM; in the data set on HIV-1 NL4-3 (Human immunodeficiency virus 1, NL43, MT4, read-out: anti-HIV EC90), less than 1 nM. Moreover, in data set [1], the IC50 came out at 2800 nM.

Regarding `C=C(C)[C@]12C[C@@H](C)[C@@]34OC5(CCCCCCC[C@H](C)[C@H]6[C@H](C)[C@H](OC(=O)c7ccccc7)[C@@](O)([C@H](O)[C@@]7(CO)O[C@H]7[C@H]3[C@H]1O5)[C@@H]64)O2` [Compound 2, pimelea factor P2], the EC90 with HIV-1 NL4-3 (setting [2]) stood at 1.4 nM. Inhibition in data set [1] was half-maximal at 3200 nM (IC50).

In the case of `C=C(C)[C@]12C[C@@H](COC(=O)c3ccccc3)[C@@]34OC5(CCCCCCC[C@@H](C)[C@H]6[C@H](C)C(=O)[C@@](O)([C@H](O)[C@@]7(CO)O[C@H]7[C@H]3[C@H]1O5)[C@@H]64)O2` [Compound 3, wikstroelide F], in the data set with HIV-1 NL4-3 (setting [3]), the EC90 amounted to 1.7 nM.

Regarding `C=C(C)[C@]12C[C@@H](COC(C)=O)[C@@]34O[C@]5(O[C@@H]1[C@@H]3[C@@H]1O[C@]1(CO)[C@@H](O)[C@@]1(O)[C@H]4[C@H]([C@H](C)[C@@H]1OC(=O)c1ccccc1)[C@H](C)CCCCCC[C@H]5O)O2` [Compound 4, Stelleralide A], in the data set with HIV-1 NL4-3 (setting [3]), the EC90 turned out to be 0.4 nM.

Regarding `C=C(C)[C@]12C[C@@H](COC(=O)c3ccccc3)[C@]34OC5(CCCCCCC[C@H](C)[C@@H]6[C@@H]3[C@]3(O[C@]6(C)OC3=O)[C@H](O)[C@@]3(CO)O[C@H]3[C@H]4[C@H]1O5)O2` [Compound 6, Stelleralide C], the EC90 in the data set with HIV-1 NL4-3 (setting [3]) came to 91 nM.

As to `C=C(C)[C@]12C[C@@H](C)[C@@]34O[C@](CCCCCCCCC)(O[C@@H]1[C@@H]3[C@@H]1O[C@]1(CO)[C@@H](O)[C@]1(O)C(=O)C(C)=C[C@H]14)O2` [Compound 7, simplexin], the EC90 in the data set on HIV-1 NL4-3 (setting [2]) is 8 nM. For the same compound, 22500 nM corresponded to half-maximal inhibition in data set [1] (IC50).

Consider `C=C(C)[C@]12C[C@@H](C)[C@@]34O[C@](/C=C/C=C/CCCCCCCCC)(O[C@@H]1[C@@H]3[C@@H]1O[C@]1(CO)[C@@H](O)[C@]1(O)C(=O)C(C)=C[C@H]14)O2` [Compound 8, huratoxin], for which the concentration for an effect of 90% (EC90) with HIV-1 NL4-3 (setting [3]) is 5.8 nM.

Take Stelleralide B [Compound 5]: the EC90 in the data set with HIV-1 NL4-3 (setting [3]) amounted to 1.6 nM.
